Series [1] concerns A549. Put plainly: Inhibition of colony formation in human A549 cells incubated for 24 hrs by crystal violet staining based assay. It is filed as functional, cell-based. The settings on record: dose 2-10 µM.
In series [2] the test system is A549. Kind of series: Induction of apoptosis in human A549 cells assessed as viable cells at 3 uM incubated for 24 hrs by annexin V-FITC and propidium iodide staining based flow cytometry analysis (reference value: 97.7 %). It is filed as functional. The settings on record: read-out: Activity. (In flow cytometry, cells or beads pass a laser one at a time.)
Series [3] can be described thus: Half life in rat at 5 mg/kg, ig. It is filed as ADME, organism-based. The settings on record: in vivo, po.

Structures are written as SMILES.

The half-life is the time in which the quantity being followed falls by half.

Consider `NC(=O)N1N=C(c2ccc(C(F)(F)F)cc2)CC1c1cn(Cc2ccc(OCCN3CCCCCC3)cc2)c2ccc(Br)cc12` (stereo not drawn), for which, in the series on A549 [1], the inhibition entry was “Dose-dependent effect”. Further, in the series on A549 [2], the viability at 3 µM amounted to 96.3%. For the same compound, the half-life in series [3] is 9.8 h.

For the origin of these results see ChEMBL document CHEMBL4680259, “Discovery of bazedoxifene analogues targeting glycoprotein 130” (Eur J Med Chem, 2020).
